According to patent US20260034146A1, “NEUROACTIVE 19-ALKOXY-17-S[…], PRODRUGS THEREOF, AND METHODS OF TREATMENT USING SAME” (priority 2012, published 2026):

Experiments:
Tadpole = Tadpole loss of righting reflex (LRR) and loss of swimming reflex (LSR); format: in vivo; details: N=10 or more animals at each of five or more concentrations, ± SEM; for Tadpole LSR EC50 (μM): loss of swimming reflex; for Tadpole LRR EC50 (μM): loss of righting reflex
Protocol: Table 3 discloses the anesthetic effects of the compounds of the present disclosure. In particular, the anesthetic effect of the compounds of the present disclosure on Loss of Righting Reflex (LRR) and Loss of Swimming Reflex (LSR).
Methods used are known in the art (see Jiang, X., et al.). Error limits are calculated as standard error of the mean (N=10 or more animals at each of five or more different concentrations).

[1] = target: picrotoxin binding site on GABAA receptors; experiment: [35S]-TBPS displacement (inhibition of [35S]-TBPS binding); details: duplicate experiments performed in triplicate; ± standard error of the mean
Protocol: The IC50 values for non-competitive displacers of [^35S]-TBPS from the picrotoxin binding site on GABAA receptors are reported in Table 1.
^aResults presented are from duplicate experiments performed in triplicate. Error limits are calculated as standard error of the mean. Methods used are known in the art (see Jiang, X., et al., Neurosteroid analogues. 9. Conformationally constrained pregnanes: structure-activity studies of 13,24-cyclo-18,21-dinorcholane analogues of the GABA modulatory and anesthetic steroids (3α,5α)- and […]. J. Med. Chem., 46: 5334-48 (2003)—the contents of which are hereby incorporated by reference in their entirety).

[2] = target: rat α1β2γ2L type GABAA receptors expressed in Xenopus laevis oocytes (Rattus norvegicus (Rat), UniProt P62813+P63138, INS375LLRMFSFK); experiment: Oocyte electrophysiology: potentiation of chloride currents mediated by 2 μM GABA, and direct gating; format: cell-based; details: ± SEM; for oocyte electrophysiology, ratio of currents in presence/absence of compound, 0.1 μM: 0.1 μM compound; for oocyte electrophysiology, ratio of currents in presence/absence of compound, 0.1 μM / oocyte electrophysiology, ratio of currents in presence/absence of compound, 1 μM / oocyte electrophysiology, ratio of currents in presence/absence of compound, 10 μM: 2 μM GABA control, N≥4 oocytes; for oocyte electrophysiology, ratio of currents in presence/absence of compound, 1 μM: 1 μM compound; for oocyte electrophysiology, ratio of currents in presence/absence of compound, 10 μM: 10 μM compound; for (gating) 10 μM, ratio of compound only current/2 μM GABA current: direct current gated by 10 μM compound in the absence of GABA, N≥4
Protocol: The compounds of the present disclosure were evaluated for the ability to potentiate chloride currents mediated by 2 μM GABA at rat α1β2γ2L type GABAA receptors expressed in Xenopus laevis oocytes and the results are shown in Table 2.
The GABA concentration used for the control response was 2 μM. Each compound was evaluated on at least four different oocytes at the concentrations indicated, and the results reported are the ratio of currents measured in the presence/absence of added compound. Gating represents direct current gated by 10 μM compound in the absence of GABA, and this current is reported as the ratio of compound only current/2 μM GABA current. Error limits are calculated as standard error of the mean (N≥4). Methods used are known in the art (see Jiang, X., et al.).

male Sprague Dawley rats = experiment: Rat loss of righting reflex (LRR), intravenous bolus; format: in vivo
Protocol: The plasma pharmacokinetics and a qualitative assessment of sedation were obtained in male Sprague Dawley rats according to the following procedure. Rats were dosed by intravenous bolus dose (60 seconds) via the foot dorsal vein at doses ranging from 5 to 15 mg/kg in an appropriate vehicle. In order to assess sedation, rats were gently restrained by hand to a lateral position for dose administration. […] If the animal was unable to return to an upright position, the time was recorded as the onset of loss of righting reflex (LRR). […] Sluggish or incomplete righting twice consecutively within a 30 second interval qualifies as a loss of righting reflex. After onset of LRR, animals were assessed every 5 minutes in the same manner. Recovery of righting reflex is defined as the ability of a rat to right itself completely within 20 seconds of being placed in dorsal recumbency. The duration of LRR is defined as the time interval between LRR and the return of righting reflex.

male beagle dogs = experiment: Dog duration of lateral recumbence, intravenous bolus; format: in vivo; details: dog dose 5 mg/kg
Protocol: The plasma pharmacokinetics and a qualitative assessment of sedation were obtained in male beagle dogs according to the following procedure. Dogs were dosed by intravenous bolus dose (60 seconds) via the cephalic vein at 5 mg/kg dose in an appropriate vehicle. In order to assess sedation, dogs were gently restrained for dose administration. If decreased muscle tone, limb weakness, or head drop was observed during dose administration, onset of lateral recumbence was recorded. […] Sluggish or incomplete righting to the sternal position qualifies as lateral recumbence. After onset of lateral recumbence, animals were assessed every 5 minutes in the same manner. The duration of lateral recumbence was recorded as the time interval between onset of lateral recumbence and the return to sternal position.

| Compound | Tadpole LSR EC50 (μM) (Tadpole) | IC50 [1] | oocyte electrophysiology, ratio of currents in presence/absence of compound, 0.1 μM [2] | oocyte electrophysiology, ratio of currents in presence/absence of compound, 1 μM [2] | oocyte electrophysiology, ratio of currents in presence/absence of compound, 10 μM [2] | (gating) 10 μM, ratio of compound only current/2 μM GABA current [2] | Duration of Rat LRR (male Sprague Dawley rats; rat dose 15 mg/kg) | Duration of Dog Lateral Recumbence (male beagle dogs) | Duration of Rat LRR (male Sprague Dawley rats; rat dose 5 mg/kg) | Tadpole LRR EC50 (μM) (Tadpole) |
| --- | --- | --- | --- | --- | --- | --- | --- | --- | --- | --- |
| COC[C@]12CCC(O)CC1CC[C@@H]1[C@@H]2CC[C@]2(C)C(=O)CC[C@@H]12 (stereo in doubt) [30, MQ-94, (3α,5β)-3-Hydroxy-19-methoxyandrostan-17-one] | None | > 30000 nM | 0.90 ± 0.02 | 0.88 ± 0.01 | 0.84 ± 0.02 | 0.03 |  |  |  |  |
| COC[C@]12CCC(=O)C[C@@H]1CC[C@H]1[C@@H]3CC[C@H](OC)[C@@]3(C)CC[C@@H]12 [7, MQ-88, (5α,17β)-17,19-Dimethoxyandrostan-3-one] |  | 8700 nM | 1.00 ± 0 | 0.85 ± 0.01 | 1.07 ± 0.02 | 0.04 ± 0.03 |  |  |  |  |
| COC[C@]12CC[C@@H](O)C[C@@H]1CC[C@H]1[C@@H]3CC[C@H](OC)[C@@]3(C)CC[C@@H]12 [8, MQ-89, (5α,17β)-17,19-Dimethoxyandrostan-3-ol] |  | 56 ± 2 nM | 1.65 ± 0.08 | 7.63 ± 0.77 | 20.9 ± 2.73 | 0.22 ± 0.01 | C (C >20 min) | C (C >20 min) |  |  |
| COC[C@]12CC[C@@H](O)C[C@@H]1CC[C@@H]1[C@@H]2CC[C@@]2(C)[C@H]1CC[C@@]21CO1 [12, MQ-90, (3α,5α,17β)-19-Methoxyspiro[androstane-17,2′-oxiran]-3-ol] |  | 79 ± 4 nM | 1.24 ± 0.05 | 7.40 ± 1.43 | 18.7 ± 6.19 | 0.14 ± 0.04 |  |  |  |  |
| COC[C@]12CC[C@@H](O)C[C@@H]1CC[C@@H]1[C@@H]2CC[C@]2(C)C(C#N)=CC[C@@H]12 [15, MQ-91, (3α,5α)-3-Hydroxy-19-methoxyandrost-16-ene-17-carbonitrile] |  | 118 ± 13 nM | 1.27 ± 0.13 | 5.34 ± 0.86 | 25.6 ± 3.23 | 0.10 ± 0.09 |  |  |  |  |
| COC[C@]12CC[C@@H](O)C[C@@H]1CC[C@H]1[C@@H]3CC[C@H](C#N)[C@@]3(C)CC[C@@H]12 [16, MQ-92, (3α,5α,17β)-3-Hydroxy-19-methoxyandrostane-17-carbonitrile] |  | 63 ± 7 nM | 1.52 ± 0.02 | 9.79 ± 0.53 | 25.7 ± 2.11 | 0.25 ± 0.11 |  | B (B 10-20 min) | B (B 10-20 min) |  |
| COC[C@]12CC[C@@H](O)C[C@@H]1CC[C@H]1[C@@H]3CC[C@H](C(C)=O)[C@@]3(C)CC[C@@H]12 [17, MQ-93, (3α,5α)-3-Hydroxy-19-methoxypregnan-20-one] |  | 47 ± 4 nM | 2.15 ± 0.19 | 12.8 ± 1.74 | 33.8 ± 5.44 | 0.23 ± 0.07 | C (C >20 min) |  |  |  |
| COC[C@]12CC[C@@H](O)C[C@@H]1CC[C@H]1[C@@H]3CC[C@H](C(=O)CO)[C@@]3(C)CC[C@@H]12 [20, MQ-98, (3α,5α)-3,21-Dihydroxy-19-methoxypregnan-20-one] |  | 345 ± 61 nM | 0.98 ± 0.01 | 2.76 ± 0.27 | 19.0 ± 2.31 | 0.09 ± 0.05 | A (A <10 min) |  |  |  |
| COC[C@]12CCC(=O)C=C1CC[C@@H]1[C@@H]2CC[C@]2(C)[C@@H](OC)CC[C@@H]12 [24, MQ-99, (17β)-17,19-Dimethoxyandrost-4-en-3-one] | None | 14500 nM | 0.88 ± 0.08 | 0.63 ± 0.06 | 1.06 ± 0.17 | 0.11 ± 0.17 |  |  |  | None |
| COC[C@]12CC[C@@H](O)CC1=CC[C@@H]1[C@@H]2CC[C@]2(C)[C@@H](OC)CC[C@@H]12 [25, MQ-101, (3α,17β)-17,19-Dimethoxyandrost-5-en-3-ol] |  | 583 ± 71 nM | 0.94 ± 0.07 | 1.97 ± 0.08 | 15.7 ± 0.90 | 0.08 ± 0.07 |  |  |  |  |
| COC[C@]12CC[C@H](O)CC1=CC[C@@H]1[C@@H]2CC[C@]2(C)[C@@H](OC)CC[C@@H]12 [26, MQ-100, (3β,17β)-17,19-Dimethoxyandrost-5-en-3-ol] | None | 17800 nM | 0.83 ± 0.03 | 0.76 ± 0.02 | 0.78 ± 0.02 | 0.02 ± 0.02 |  |  |  | None |
| COC[C@]12CC[C@@H](O)C[C@@H]1CC[C@H]1[C@@H]3CC[C@H]([N+](=O)[O-])[C@@]3(C)CC[C@@H]12 [29, MQ-97, (3α,5α,17β)-19-methoxy-17-nitroandrostan-3-ol] |  | 37 ± 4 nM | 2.07 ± 0.09 | 15.7 ± 1.45 | 26.6 ± 4.34 | 0.11 ± 0.01 | B (B 10-20 min) | C (C >20 min) |  |  |
| COC[C@]12CC[C@H](O)C[C@@H]1CC[C@H]1[C@@H]3CC[C@H](OC)[C@@]3(C)CC[C@@H]12 [31, MQ-96, (3β,5α,17β)-17,19-Dimethoxyandrostan-3-ol] |  | 7800 nM | 0.91 ± 0.02 | 0.97 ± 0.05 | 1.10 ± 0.05 | 0.02 ± 0 |  |  |  |  |
